Reference: PubChem BioAssay AID1626 (SRMLSC, 2009)

Tested on: M. tuberculosis H37Rv growth inhibition
Test: M. tuberculosis H37Rv growth inhibitors, H37Rv strain (AID 1626)
Conditions: for IC90: measured here: IC90 against H37Rv; for CC50: measured here: Vero cell cytotoxicity

Structure (SMILES) | IC50 | IC90 | CC50
O=C(NC12CC3CC(CC(C3)C1)C2)c1ccc(-c2ccc(Br)cc2)o1 | 6.56 µM | 12.7 µM | 35.3 µM
CCOC(=O)c1ccc(N=CC2=C(O)CC(C)(C)CC2=O)cc1 | 1.35 µM | > 100 µM | –
Cc1ccc(C(C)C)c(OCc2nn(CC(=O)c3ccc(OC(F)F)cc3)c3[n+]2CCCCC3)c1 | 1.07 µM | 1.46 µM | > 40 µM
COc1ccccc1N1CCN(c2ncc(C(=O)N3CCN(c4cccc(Cl)c4)CC3)c3ccccc23)CC1 | – | – | > 40 µM
C#CCOCCOCCOCCNc1nc(N2CCN(C(=O)[C@H](Cc3ccc(O)cc3)n3cc([C@@H](N)C(C)CC)nn3)CC2)nc(N2CCN(C(=O)[C@H](Cc3cc4ccccc4[nH]3)n3cc([C@@H](N)CC(C)C)nn3)CC2)n1 (stereo partly specified) | 7.36 µM | 21.5 µM | –
O=C(Nc1nnc(-c2ccco2)o1)c1ccc([N+](=O)[O-])s1 | 6.03 µM | 8.57 µM | 16.6 µM
Cc1nc2ncccn2c1-c1csc(Nc2ccc(N(C)C)cc2)n1 | 12.8 µM | 16 µM | 3.47 µM
CCN(CC)CCOC(=O)c1ccc(N/C=C(/C#N)c2nc(-c3ccc4c(c3)OCO4)cs2)cc1 | 13.5 µM | 22.6 µM | 7.2 µM
O=C(COC(=O)c1ccccc1Br)Nc1ccccc1F | – | > 100 µM | –
COC(=O)CSc1nc(N)c2c3c(sc2n1)CCCC3 | 2.54 µM | 4.12 µM | –
COc1ccc(-c2nnc(SCC(=O)OC3CCCCC3)o2)cc1OC | < 0.195 µM | 1.04 µM | > 40 µM
CCOC(=O)c1sc2nc(CSc3ccccc3)nc(N3CCCN(C)CC3)c2c1C | 5.79 µM | 6.53 µM | 24.8 µM
COC(=O)C1C(O)C(C)C(O)C(C)(O)/C=C\C=C(/C)C(=O)Nc2c(C)c(OC(C)=O)c3c(c2O)C(=O)C(C)=C2OCOC(=C23)/C(C)=C/C(C)(O)C(O)C(C)C1O (stereo unspecified) | 0.32 µM | 0.878 µM | –
NC1=NC[C@H](Cc2ccccc2)N1CCCCC1CCCCC1 | 10 µM | 13.6 µM | > 40 µM
CCCCn1c(NC(=O)C2CCCCC2)nc2ccccc21 | 0.881 µM | > 100 µM | 35 µM
Cc1ccc(-n2cc(CN3CCC(CO)(Cc4cccc(C(F)(F)F)c4)CC3)cn2)cc1 | 4.31 µM | 7.09 µM | 23.7 µM
CCOC(=O)c1cc(-c2csc(-c3ccc(C(F)(F)F)cc3)n2)on1 | < 0.195 µM | 3.33 µM | –
Nc1cc(=O)[nH]c(SCC(=O)Nc2ccccc2-c2ccccc2)n1 | – | > 100 µM | > 40 µM
COc1cc(/C=C(/C#N)C(=O)Nc2ccc(C)cc2)ccc1Oc1nc(Cl)ncc1F | – | – | > 40 µM
CSc1ccc(/C=C/C(=O)c2ccc(NC(C)=O)cc2)cc1 | 28.4 µM | > 100 µM | –

Structure (SMILES) | IC50 | IC90 | CC50
O=C(O)C1CCCCC1C(=O)Nc1ccc2c(c1)CCC2 (stereo unspecified) | 73.5 µM | > 100 µM | –
COc1ccc(CNCc2cn(-c3cccc(F)c3)nc2-c2ccc(C)o2)cc1 | 6.12 µM | 10.5 µM | > 40 µM
O=C(CSc1ccncc1)Nc1ccc2ccccc2c1 | 1.15 µM | > 100 µM | –
CCCCOc1ccc(C(=O)N/C(=C/C=C/c2ccccc2)C(=O)N2CCOCC2)cc1 | 13.9 µM | > 100 µM | > 40 µM
CCOC(=O)N1CCN(CCC(=O)Nc2ccc(C)c(Br)c2)CC1 | 6.69 µM | 26.2 µM | –
CCOc1cc(/C=C2\SC(=N)N(c3nccs3)C2=O)ccc1OCCN1CCOCC1 | 0.393 µM | 1.02 µM | 19.1 µM
O=C(Nc1ccc(C2=NCCN2)cc1)c1ccc(Cl)c(C(=O)Nc2ccc(C3=NCCN3)cc2)c1 | 7.69 µM | 16.9 µM | –
Cc1ccc(-n2cc(CN(C)Cc3nccn3C)c(-c3cccc(C)c3)n2)cc1 | 9.75 µM | 15.9 µM | > 40 µM
CCCCCn1c(N2CCC(Cc3ccccc3)CC2)nc2c1c(=O)[nH]c(=O)n2C | 11.8 µM | 13.4 µM | 24.1 µM
CC(=O)n1cc(N(C(=O)CCl)c2ccc(Cl)cc2)c2ccccc21 | 8.88 µM | 19.6 µM | 0.662 µM
Cc1nc2ccc(N)cc2s1 | 0.6 µM | > 100 µM | –
CC(=O)OCCCNc1cc(Sc2nc3ccccc3s2)c2nonc2c1[N+](=O)[O-] | 7.74 µM | 10.1 µM | 16.3 µM
Oc1ccc(Cl)cc1N=Cc1sc2ccccc2c1Cl | 6.53 µM | 66.7 µM | > 40 µM
CCCCCCn1c(=O)c(C(=O)Nc2nnc(C)s2)c(O)c2ccccc21 | 4.65 µM | 6 µM | > 40 µM
Cn1c(NC(=O)c2cccc(Cn3cc(Cl)cn3)c2)nc2ccccc21 | – | – | > 40 µM
Cn1ncc2c(Nc3cccc(Cl)c3)nc(Nc3cccc(Cl)c3)nc21 | 11.7 µM | 23.6 µM | 26.9 µM
O=C(Nc1ccc(Cl)cc1)Nc1csc([N+](=O)[O-])c1 | 79.1 µM | > 100 µM | –
O=c1[nH]c(-c2ccccn2)nc(C(F)(F)F)c1Br | 0.487 µM | 1.02 µM | 33.4 µM
Cc1csc(NC(=O)c2cc([N+](=O)[O-])cc([N+](=O)[O-])c2)n1 | 11.1 µM | 15.9 µM | > 40 µM
